Laboratory results as given in ChEMBL document CHEMBL1201862, “PubChem BioAssay data set” (2004).
Activity calls are given as the source filed them.

Columns and labels:
[1] = target: Heat shock protein HSP 90-alpha (Homo sapiens, UniProt P07900); assay: Luminescence-based dose response biochemical high throughput screening assay for inhibitors of the Heat Shock Protein 90 (HSP90). [Related pubchem assays: 1831 (Summary AID.), 1846 (Confirmation screen.), 1789 (Primary screen.)]
[2] = target: T1, Hexokinase-1 (Homo sapiens, UniProt P19367); assay: SAR analysis of small molecule inhibitors of hexokinase domain containing I (HKDC1) in the hexokinase 1 selectivity assay. [Related pubchem assays (depositor defined):AID493160, AID493190]; assay type: functional
T1 sequence (P19367 whole entry): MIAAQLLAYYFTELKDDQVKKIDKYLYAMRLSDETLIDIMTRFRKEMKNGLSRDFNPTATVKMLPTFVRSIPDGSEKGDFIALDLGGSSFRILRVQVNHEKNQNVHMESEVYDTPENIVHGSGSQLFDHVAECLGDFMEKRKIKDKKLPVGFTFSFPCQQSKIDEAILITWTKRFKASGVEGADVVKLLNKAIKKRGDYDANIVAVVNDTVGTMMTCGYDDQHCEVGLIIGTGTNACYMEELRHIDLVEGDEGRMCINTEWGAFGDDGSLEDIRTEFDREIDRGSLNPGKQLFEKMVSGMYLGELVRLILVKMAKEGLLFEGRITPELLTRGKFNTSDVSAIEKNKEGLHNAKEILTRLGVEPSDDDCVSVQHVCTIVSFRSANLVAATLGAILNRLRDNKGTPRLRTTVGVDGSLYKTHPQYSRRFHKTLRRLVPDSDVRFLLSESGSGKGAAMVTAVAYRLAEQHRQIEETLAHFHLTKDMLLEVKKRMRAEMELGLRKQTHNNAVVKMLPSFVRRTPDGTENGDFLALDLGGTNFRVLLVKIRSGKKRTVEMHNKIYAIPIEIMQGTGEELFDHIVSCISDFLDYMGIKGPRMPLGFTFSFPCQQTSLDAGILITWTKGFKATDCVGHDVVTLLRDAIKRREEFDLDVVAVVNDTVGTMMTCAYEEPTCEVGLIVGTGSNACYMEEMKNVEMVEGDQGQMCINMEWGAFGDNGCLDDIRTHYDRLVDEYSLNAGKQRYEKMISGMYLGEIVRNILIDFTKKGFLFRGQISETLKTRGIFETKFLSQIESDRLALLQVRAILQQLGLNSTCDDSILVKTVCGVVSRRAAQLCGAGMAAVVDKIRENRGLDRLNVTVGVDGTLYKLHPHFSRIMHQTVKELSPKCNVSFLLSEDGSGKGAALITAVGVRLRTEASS

[3] = target: Cystic fibrosis transmembrane conductance regulator/Golgi-associated PDZ and coiled-coil motif-containing protein (Homo sapiens, UniProt P13569+Q9HD26); assay: potency against CAL PDZ-peptide interaction – biochemical, fluorescence polarization, Cerulean-tagged CAL PDZ, cherry-picks, dose response (AID 504773)
Chain of Cystic fibrosis transmembrane conductance regulator/Golgi-associated PDZ and coiled-coil motif-containing protein (P13569 whole entry, other chains not shown): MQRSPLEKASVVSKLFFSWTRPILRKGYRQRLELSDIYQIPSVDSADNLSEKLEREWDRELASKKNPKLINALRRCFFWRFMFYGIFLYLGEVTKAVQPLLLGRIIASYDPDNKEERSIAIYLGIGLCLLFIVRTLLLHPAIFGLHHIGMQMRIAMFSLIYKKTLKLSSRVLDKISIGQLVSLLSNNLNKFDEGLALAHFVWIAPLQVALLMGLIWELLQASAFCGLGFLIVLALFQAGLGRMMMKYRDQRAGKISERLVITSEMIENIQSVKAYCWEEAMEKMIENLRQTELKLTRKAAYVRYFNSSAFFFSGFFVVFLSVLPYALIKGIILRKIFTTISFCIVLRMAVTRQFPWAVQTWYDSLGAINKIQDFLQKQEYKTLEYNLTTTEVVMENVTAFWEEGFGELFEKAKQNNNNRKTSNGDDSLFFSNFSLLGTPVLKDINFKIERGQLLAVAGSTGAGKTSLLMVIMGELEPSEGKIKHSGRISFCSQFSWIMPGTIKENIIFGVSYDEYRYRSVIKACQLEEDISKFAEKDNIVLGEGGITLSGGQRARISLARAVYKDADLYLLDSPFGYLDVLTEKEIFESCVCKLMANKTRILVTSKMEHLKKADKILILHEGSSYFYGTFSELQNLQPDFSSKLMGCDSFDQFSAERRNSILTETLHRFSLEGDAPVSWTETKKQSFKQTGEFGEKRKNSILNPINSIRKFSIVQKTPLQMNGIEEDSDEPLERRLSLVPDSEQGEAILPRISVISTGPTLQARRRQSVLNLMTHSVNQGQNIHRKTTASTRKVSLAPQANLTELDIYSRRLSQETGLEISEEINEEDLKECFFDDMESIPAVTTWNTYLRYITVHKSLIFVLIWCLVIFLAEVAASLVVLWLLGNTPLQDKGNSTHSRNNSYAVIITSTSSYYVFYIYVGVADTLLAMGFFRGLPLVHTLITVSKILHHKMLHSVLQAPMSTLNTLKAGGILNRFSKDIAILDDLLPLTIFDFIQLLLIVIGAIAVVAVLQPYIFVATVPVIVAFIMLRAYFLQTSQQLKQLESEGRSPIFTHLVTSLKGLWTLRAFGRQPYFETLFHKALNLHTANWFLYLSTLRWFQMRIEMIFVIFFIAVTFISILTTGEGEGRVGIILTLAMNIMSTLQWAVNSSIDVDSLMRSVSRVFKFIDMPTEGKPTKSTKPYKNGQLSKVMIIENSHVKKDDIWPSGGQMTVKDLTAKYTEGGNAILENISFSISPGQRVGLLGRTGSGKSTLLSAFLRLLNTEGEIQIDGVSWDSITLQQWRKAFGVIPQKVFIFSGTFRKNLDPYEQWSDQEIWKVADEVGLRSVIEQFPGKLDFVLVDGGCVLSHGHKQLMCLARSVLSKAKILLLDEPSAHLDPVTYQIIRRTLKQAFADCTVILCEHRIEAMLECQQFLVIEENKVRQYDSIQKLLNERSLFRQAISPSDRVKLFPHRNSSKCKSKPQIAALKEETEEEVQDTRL

[4] = cells; assay type: functional, cell-based
[5] = target: Dual specificity protein phosphatase 3 (Homo sapiens, UniProt P51452); assay: SAR VHR1 Fluorescent Assay for In Vitro dose response studies Set 2. [Related pubchem assays (depositor defined):AID1654, AID1661, AID1878]; assay type: functional
Chain of Dual specificity protein phosphatase 3 (P51452 whole entry): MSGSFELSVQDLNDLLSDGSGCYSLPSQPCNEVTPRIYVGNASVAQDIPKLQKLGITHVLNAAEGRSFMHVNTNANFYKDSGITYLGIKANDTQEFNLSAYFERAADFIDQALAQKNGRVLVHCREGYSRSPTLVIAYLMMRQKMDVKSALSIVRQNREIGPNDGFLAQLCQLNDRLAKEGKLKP

[6] = target: DNA (cytosine-5)-methyltransferase 1 (Homo sapiens, UniProt P26358); assay: inhibition of DNA methylation by DNMT1 – biochemical, fluorescent molecular beacon, confirmation (AID 602386); assay type: functional
Chain of DNA (cytosine-5)-methyltransferase 1 (P26358 whole entry): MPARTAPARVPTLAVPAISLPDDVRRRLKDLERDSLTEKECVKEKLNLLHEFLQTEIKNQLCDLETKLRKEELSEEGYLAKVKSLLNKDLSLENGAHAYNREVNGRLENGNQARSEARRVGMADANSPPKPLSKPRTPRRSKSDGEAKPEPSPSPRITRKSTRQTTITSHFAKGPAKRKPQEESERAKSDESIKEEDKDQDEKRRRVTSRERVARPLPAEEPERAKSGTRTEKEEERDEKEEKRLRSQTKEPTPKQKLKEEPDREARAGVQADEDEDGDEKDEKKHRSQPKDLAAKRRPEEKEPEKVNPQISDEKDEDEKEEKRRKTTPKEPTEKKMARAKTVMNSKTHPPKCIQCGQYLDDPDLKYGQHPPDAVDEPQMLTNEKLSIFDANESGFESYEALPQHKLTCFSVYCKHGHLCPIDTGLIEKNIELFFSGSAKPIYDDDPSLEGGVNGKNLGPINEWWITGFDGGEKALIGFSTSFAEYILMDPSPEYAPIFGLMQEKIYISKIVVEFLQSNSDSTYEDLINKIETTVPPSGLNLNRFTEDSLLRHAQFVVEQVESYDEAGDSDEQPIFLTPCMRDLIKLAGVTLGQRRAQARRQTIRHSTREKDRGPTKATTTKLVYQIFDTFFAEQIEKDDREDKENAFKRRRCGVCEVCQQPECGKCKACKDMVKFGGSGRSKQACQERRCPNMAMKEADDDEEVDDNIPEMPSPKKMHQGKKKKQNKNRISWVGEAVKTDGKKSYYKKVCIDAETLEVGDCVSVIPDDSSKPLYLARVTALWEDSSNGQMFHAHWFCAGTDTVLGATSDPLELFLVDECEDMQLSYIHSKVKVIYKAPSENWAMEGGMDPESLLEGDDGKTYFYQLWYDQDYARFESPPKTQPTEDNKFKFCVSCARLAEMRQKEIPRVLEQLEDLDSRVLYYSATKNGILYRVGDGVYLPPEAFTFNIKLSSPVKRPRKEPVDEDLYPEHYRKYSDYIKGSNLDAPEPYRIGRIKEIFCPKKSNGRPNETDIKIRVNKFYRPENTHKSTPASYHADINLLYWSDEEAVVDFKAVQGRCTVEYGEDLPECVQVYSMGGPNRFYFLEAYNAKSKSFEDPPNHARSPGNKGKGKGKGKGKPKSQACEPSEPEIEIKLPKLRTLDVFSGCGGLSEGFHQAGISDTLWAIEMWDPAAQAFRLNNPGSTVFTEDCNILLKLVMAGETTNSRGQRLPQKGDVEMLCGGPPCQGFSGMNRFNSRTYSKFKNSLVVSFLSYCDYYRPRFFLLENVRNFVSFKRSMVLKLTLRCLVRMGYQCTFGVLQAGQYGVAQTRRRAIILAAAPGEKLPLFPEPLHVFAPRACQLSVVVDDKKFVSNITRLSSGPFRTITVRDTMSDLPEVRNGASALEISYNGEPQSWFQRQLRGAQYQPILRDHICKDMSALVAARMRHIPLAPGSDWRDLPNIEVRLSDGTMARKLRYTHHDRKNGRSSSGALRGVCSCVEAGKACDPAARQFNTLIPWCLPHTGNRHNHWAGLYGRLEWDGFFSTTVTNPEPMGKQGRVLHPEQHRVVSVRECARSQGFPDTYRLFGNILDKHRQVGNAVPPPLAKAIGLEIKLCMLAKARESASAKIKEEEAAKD

[7] = target: T2, Aminopeptidase N (Plasmodium falciparum FcB1/Columbia, UniProt O96935); assay: malaria alanyl aminopeptidase activity blockers – biochemical, fluorogenic H-Leu-NHMec substrate, 1536-well (AID 1445); parameters: species or system Plasmodium falciparum 3D7, 3D7
T2 sequence (O96935 whole entry): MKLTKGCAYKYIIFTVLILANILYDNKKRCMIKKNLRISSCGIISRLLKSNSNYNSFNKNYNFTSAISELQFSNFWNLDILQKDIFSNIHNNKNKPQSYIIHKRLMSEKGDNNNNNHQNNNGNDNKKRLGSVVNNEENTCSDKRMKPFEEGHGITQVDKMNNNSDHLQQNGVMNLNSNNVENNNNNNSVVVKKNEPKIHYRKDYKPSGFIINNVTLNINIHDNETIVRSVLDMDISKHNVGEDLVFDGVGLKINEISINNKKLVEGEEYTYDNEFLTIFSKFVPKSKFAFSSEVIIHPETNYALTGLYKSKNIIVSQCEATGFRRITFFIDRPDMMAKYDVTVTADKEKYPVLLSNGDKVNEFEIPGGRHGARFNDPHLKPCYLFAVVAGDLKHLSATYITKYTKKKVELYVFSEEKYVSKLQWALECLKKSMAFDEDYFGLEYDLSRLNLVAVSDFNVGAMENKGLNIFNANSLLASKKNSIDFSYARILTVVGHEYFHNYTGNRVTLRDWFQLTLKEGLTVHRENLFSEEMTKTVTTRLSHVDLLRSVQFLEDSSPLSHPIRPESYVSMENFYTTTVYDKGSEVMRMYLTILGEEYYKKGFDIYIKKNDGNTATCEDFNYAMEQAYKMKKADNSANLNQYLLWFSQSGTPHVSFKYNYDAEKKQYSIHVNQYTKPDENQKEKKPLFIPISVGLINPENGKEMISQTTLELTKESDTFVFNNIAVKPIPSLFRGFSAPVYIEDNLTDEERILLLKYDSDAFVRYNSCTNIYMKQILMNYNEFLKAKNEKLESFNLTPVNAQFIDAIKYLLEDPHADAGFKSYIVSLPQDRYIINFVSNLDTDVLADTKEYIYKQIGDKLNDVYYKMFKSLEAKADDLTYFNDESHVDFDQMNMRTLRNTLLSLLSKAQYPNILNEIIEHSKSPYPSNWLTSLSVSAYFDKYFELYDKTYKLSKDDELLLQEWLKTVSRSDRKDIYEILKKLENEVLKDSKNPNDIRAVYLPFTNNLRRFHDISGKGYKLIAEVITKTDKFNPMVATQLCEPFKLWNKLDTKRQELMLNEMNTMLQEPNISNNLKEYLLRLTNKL

[8] = target: T3, Caspase-3 (Homo sapiens, UniProt P42574); assay: Dose-response confirmation of uHTS inhibitor hits of Sentrin-Specific Protease 8 in a Caspase-3 Fluorescence assay.; assay type: functional
T3 sequence (P42574 whole entry): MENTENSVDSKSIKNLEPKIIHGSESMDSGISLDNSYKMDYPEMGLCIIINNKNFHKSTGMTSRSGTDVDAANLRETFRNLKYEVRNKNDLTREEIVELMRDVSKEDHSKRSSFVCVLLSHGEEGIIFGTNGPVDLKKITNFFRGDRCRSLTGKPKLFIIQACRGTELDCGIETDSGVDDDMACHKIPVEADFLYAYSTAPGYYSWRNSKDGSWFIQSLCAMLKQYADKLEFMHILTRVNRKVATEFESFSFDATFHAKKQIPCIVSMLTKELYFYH

O=C1C(Nc2ccc(O)cc2)=C/C(=N/S(=O)(=O)c2cccs2)c2ccccc21
IC50 [1]: 0.656 µM (active)

COc1ccc(S(=O)(=O)Nc2cc(SCC(=O)O)c(O)c3ccccc23)cc1
IC50 [2]: > 80 µM (inactive)
AC50 [3]: 33.1 µM (active)

O=C(/C=C/c1ccco1)Nc1ccc(Oc2ccccc2)cc1
EC50 [4]: > 350 µM (not active)

CCc1nnc(NS(=O)(=O)c2ccc(NC(=S)NC(=O)/C=C/c3ccc(C(C)C)cc3)cc2)s1
IC50 [5]: 15 µM (active)
IC50 [6]: 6.16 µM (active)

CC1CC(=O)c2c(cc3c(-c4c(O)cc(O)c5c(O)c6c(cc45)OC(C)CC6=O)c(O)cc(O)c3c2O)O1 (stereo not drawn) [CEPHALOCHROMIN]
IC50 [7]: 64.9 µM (active)

COC(=O)C(O)(c1c(C)[nH]n(-c2ccccc2)c1=O)C(F)(F)F (stereo not drawn)
IC50 [8]: 68.9 µM (inactive)
